In patent US8338492B2, “Films and particles” (priority 2006, dated 2012):

Tests used:
Melanoma cell line = conditions: 5 days, media containing 10% FBS
Procedure: Cell proliferation assays testing the effects of paclitaxel were performed using three tumor cell lines. Lewis Lung Carcinoma (LLC), Melanoma and Calu6 (human lung cancer) cell lines were plated at 3,000 cells/well and when established, cultured in media with/without paclitaxel. Some cultures were maintained with optimal growth factors (serum) whereas others were serum starved (non-growing) cultures. At the end of 5 days, tumor cell proliferation was assessed via MTT analysis.
To determine the kinetics of the anti-tumor response elicited by paclitaxel-loaded microparticles and to assess for a potential “burst effect” of drug release, a cell proliferation assay comparing paclitaxel-loaded microparticles and DMSO (control) microparticles using the melanoma cell line was run for five consecutive days with a plate undergoing MTT analysis each day for days 2-5. Paclitaxel loaded microparticles and DMSO microparticles were added to serum rich media and individually assessed on tumor cells of the same plate.

Tumor cells = conditions: estimated
Procedure: Cell proliferation assays were utilized to study the effects of paclitaxel-loaded microparticles on tumor growth. Tumor cells were plated at 3000 cells/well and positive (serum-rich) and negative (serum-poor) cultures were used to signify 0% and 100% growth inhibition respectively.

[1] = system: Lewis Lung Carcinoma (LLC) cell line; assay: Cell proliferation assay (MTT, 5 days) with paclitaxel; assay type: cell-based, murine; conditions: media containing 10% FBS
Procedure: (§1) Lewis Lung Carcinoma (LLC), Melanoma and Calu6 (human lung cancer) cell lines were plated at 3,000 cells/well and when established, cultured in media with/without paclitaxel.

[2] = system: Calu6 (human lung cancer) cell line; assay: as above; assay type: cell-based; conditions: media containing 10% FBS
Procedure: as §1

Compound: CC(=O)O[C@H]1C(=O)[C@@]2(C)[C@H]([C@H](OC(=O)c3ccccc3)[C@]3(O)C[C@H](OC(=O)[C@H](O)[C@@H](NC(=O)c4ccccc4)c4ccccc4)C(C)=C1C3(C)C)[C@]1(OC(C)=O)CO[C@@H]1C[C@@H]2O [paclitaxel]
- paclitaxel concentration that reliably inhibits growth (Melanoma cell line): 1 to 10 ng/mL
- range of tumoricidal effects of paclitaxel (Tumor cells): 5 to 10 ng
- paclitaxel concentration that reliably inhibits growth [1]: 1 to 10 ng/mL
- paclitaxel concentration that reliably inhibits growth [2]: 1 to 10 ng/mL
